Where two headings read alike, the source gives them in different places. Marks after values point to notes of the source that are not given here.
Legend:
[1] = molecular target: T1, hCA I (Homo sapiens, UniProt P00915); experiment: Stopped flow CO2 hydrase assay, hCA I; type: biochemical; conditions: mean from 3 assays, read-out: K1, hCAI
T1 construct: made in house
Experimental: (§1) An Applied Photophysics stopped-flow instrument has been used for assaying the CA catalysed CO2 hydration activity. Phenol red (at a concentration of 0.2 mM) has been used as indicator, working at the absorbance maximum of 557 nm, with 20 mM Hepes (pH 7.5) as buffer, and 20 mM Na2SO4 (for maintaining constant the ionic strength), following the initial rates of the CA-catalyzed CO2 hydration reaction for a period of 10-100 s. The CO2 concentrations ranged from 1.7 to 17 mM for the determination of the kinetic parameters and inhibition constants. […] The uncatalyzed rates were determined in the same manner and subtracted from the total observed rates. Stock solutions of inhibitor (0.1 mM) were prepared in distilled-deionized water and dilutions up to 0.01 nM were done thereafter with the assay buffer. […] The inhibition constants were obtained by non-linear least-squares methods using PRISM 3 and the Cheng-Prusoff equation, as reported earlier and represent the mean from at least three different determinations. All CA isofoms were recombinant ones obtained in-house.

[2] = tested on: mice; experiment: Neurotoxicity (minimal motor impairment, rotarod) in mice; conditions: mice i.p.
[3] = molecular target: T2, hCA II (Homo sapiens, UniProt P00918); experiment: Stopped flow CO2 hydrase assay, hCA II; type: biochemical; conditions: mean from 3 assays, read-out: K1, hCA II
T2 construct: made in house
Experimental: as §1

[4] = tested on: maximal electroshock seizure (MES); experiment: Maximal electroshock seizure (MES) test in mice; conditions: for responders at 30 mg/kg / responders at 100 mg/kg / responders at 300 mg/kg: read-out: MES, number of mice protected/number of mice tested
[5] = in vivo; conditions: male, CF no. 1 albino, mouse, ip
[6] = tested on: pentylenetetrazol-induced seizure (scMet); experiment: Subcutaneous metrazol seizure test (scMet) in rats; conditions: rats, p.o.
[7] = tested on: 6 Hz psychomotor seizure; experiment: 6 Hz psychomotor seizure test in mice; conditions: for responders at 30 mg/kg / responders at 100 mg/kg / responders at 300 mg/kg: read-out: 6 Hz, number of mice protected/number of mice tested
[8] = molecular target: T3, hCA IV (Homo sapiens, UniProt P22748); experiment: Stopped flow CO2 hydrase assay, hCA IV; type: biochemical; conditions: mean from 3 assays, read-out: K1, hCA IV
T3 construct: made in house
T3 sequence (P22748 19-284): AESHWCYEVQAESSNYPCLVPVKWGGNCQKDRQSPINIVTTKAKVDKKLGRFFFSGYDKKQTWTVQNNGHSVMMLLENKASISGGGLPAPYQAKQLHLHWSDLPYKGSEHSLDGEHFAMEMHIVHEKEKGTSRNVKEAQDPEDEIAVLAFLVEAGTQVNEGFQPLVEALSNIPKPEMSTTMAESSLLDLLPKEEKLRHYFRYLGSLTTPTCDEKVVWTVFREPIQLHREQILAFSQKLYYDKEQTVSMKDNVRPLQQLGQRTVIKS
Experimental: as §1

[9] = molecular target: T4, hCA VII (Homo sapiens, UniProt P43166); experiment: Stopped flow CO2 hydrase assay, hCA VII; type: biochemical; conditions: mean from 3 assays, read-out: K1, hCA VII
T4 construct: made in house
T4 sequence (P43166 whole entry): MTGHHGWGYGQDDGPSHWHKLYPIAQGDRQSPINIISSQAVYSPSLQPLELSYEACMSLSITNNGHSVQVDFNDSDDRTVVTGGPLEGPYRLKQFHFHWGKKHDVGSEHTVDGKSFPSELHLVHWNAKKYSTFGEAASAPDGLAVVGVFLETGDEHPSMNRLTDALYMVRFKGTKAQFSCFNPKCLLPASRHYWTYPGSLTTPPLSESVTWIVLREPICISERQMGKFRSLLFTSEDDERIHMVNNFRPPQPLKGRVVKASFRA
Experimental: as §1

[10] = tested on: maximal electroshock seizure (MES); experiment: Maximal electroshock seizure (MES) test in rats; conditions: Rattus norvegicus, po, read-out: MES-ED50, rats, p.o.
[11] = tested on: SWV mice; experiment: Teratogenicity in the SWV mouse model; type: in vivo; conditions: for No. of fetuses with NTDs / No. of implants / No. of live fetuses / No. of resorptions / Fetal weight mean ± SD: day 8.5 of gestation; for Fetal weight mean ± SD: in g (unit assumed); for No. of live fetuses, figure in parentheses / No. of resorptions, figure in parentheses: share of implants; for No. of fetuses with NTDs, figure in parentheses: share of live fetuses
Experimental: The teratogenic properties of the newly designed compounds (1-10) were evaluated in the highly inbred SWV mice strain known for its high susceptibility to VPA-induced neural tube defects (NTDs). Two month old nulligravid females, were mated overnight with males and examined for the presence of vaginal plugs the following morning, and the onset of gestation was considered to be 10 p.m. of the previous night, the midpoint of the dark cycle. At day 8.5 of gestation, each dam received a single i.p. injection of the test compounds in an equimolar dose of 0.9 or 1.8 mmol/kg and the control dams were injected with vehicle (25% water solution of Cremophore EL, Fluka Biochemica Germany). The volume of injection was 10 μL/g of body weight. […] At gestation day […], the dams were euthanized by carbon dioxide asphyxiation followed by cervical dislocation. After the opening the uterus, the location of all viable fetuses and resorption sites were recorded, and the fetuses were examined for the presence of exencephaly or other gross congenital abnormalities. The teratogenicity data (implantations, resorptions and NTDs) were evaluated for significant differences between the control and treated groups by analyzing the contingency table with Fisher's exact test. Statistical analysis was conducted using GraphPad InStat (version 3.06; GraphPad Software, San Diego, Calif., USA), and the results of all tests were considered to be statistically significant when the p-value was less than 0.05

[12] = tested on: pentylenetetrazol-induced seizure (scMet); experiment: Subcutaneous metrazol seizure test (scMet) in mice; conditions: Mus musculus, ip, read-out: scMet-ED50

T1 sequence (P00915 whole entry): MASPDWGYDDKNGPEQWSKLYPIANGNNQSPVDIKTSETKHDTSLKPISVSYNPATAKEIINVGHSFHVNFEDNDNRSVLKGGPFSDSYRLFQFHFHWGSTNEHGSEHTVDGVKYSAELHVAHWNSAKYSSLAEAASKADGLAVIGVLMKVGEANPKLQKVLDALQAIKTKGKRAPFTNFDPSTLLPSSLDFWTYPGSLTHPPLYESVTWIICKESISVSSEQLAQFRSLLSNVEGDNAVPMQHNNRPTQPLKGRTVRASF

## CCCC(COC(=O)Nc1ccc(S(N)(=O)=O)cc1)C(C)CC (stereo not drawn) [Compound 1, 3-methyl-2-propylpentyl (4-sulfamoylphenyl)carbamate]
[1]
  Ki: 0.089 µM
[2]; 30 mg/kg, 0.5 h
  Tox (motor impairment or sedation), number of animals affected/number of animals tested: 0/8
[2]; 30 mg/kg, 2.0 h
  Tox (motor impairment or sedation), number of animals affected/number of animals tested: 0/8
[2]; 100 mg/kg, 0.5 h
  Tox (motor impairment or sedation), number of animals affected/number of animals tested: 0/8
[2]; 100 mg/kg, 2.0 h
  Tox (motor impairment or sedation), number of animals affected/number of animals tested: 0/8
[2]; 300 mg/kg, 0.5 h
  Tox (motor impairment or sedation), number of animals affected/number of animals tested: 0/8
[2]; 300 mg/kg, 2.0 h
  Tox (motor impairment or sedation), number of animals affected/number of animals tested: 0/8
[3]
  Ki: 0.0057 µM
[4]; Mus musculus, ip, 0.5 h
  responders at 30 mg/kg: 0%
  responders at 100 mg/kg: 0%
  responders at 300 mg/kg: 0%
[4]; Mus musculus, ip, 2 h
  responders at 30 mg/kg: 0%
  responders at 100 mg/kg: 75%
  responders at 300 mg/kg: 100%
[4]; Mus musculus, ip, read-out: MES-ED50, mice, i.p.
  ED50: 136 mg/kg
[4]; mice, i.p.
  MES-ED50: 236 mg/kg
[5]
  TD50: > 500 mg/kg
other
  melting point: 151 to 152 °C
[6]
  scMet ED50: inactive
[7]; Mus musculus, ip, 0.5 h
  responders at 30 mg/kg: 25%
  responders at 100 mg/kg: 25%
  responders at 300 mg/kg: 0%
[7]; Mus musculus, ip, 2 h
  responders at 30 mg/kg: 0%
  responders at 100 mg/kg: 25%
  responders at 300 mg/kg: 75%
[7]; Mus musculus, ip, read-out: 6 Hz-ED50, mice, i.p., 32 mA
  ED50: 75 mg/kg
[7]; mice, i.p., 32 mA
  6 Hz-ED50: 74 mg/kg
[8]
  Ki: > 10 µM
[9]
  Ki: 0.865 µM
[10]
  ED50: 36 mg/kg
[11]
  induction of neural tube defects relative to anticonvulsant effective dose (in words): induced neural tube defects only at doses markedly exceeding their effective dose
[11]; single i.p. 0.9 mmol/kg
  No. of fetuses with NTDs: 1
  No. of implants: 126
  No. of live fetuses: 94
  No. of resorptions: 32
  Fetal weight mean ± SD: 0.88 ± 0.03
  No. of live fetuses, figure in parentheses: 74.6%
  No. of resorptions, figure in parentheses: 25.4%
  No. of fetuses with NTDs, figure in parentheses: (1.1)
[11]; single i.p. 1.8 mmol/kg
  No. of fetuses with NTDs: 7
  No. of implants: 109
  No. of live fetuses: 50
  No. of resorptions: 59
  Fetal weight mean ± SD: 0.88 ± 0.06
  No. of live fetuses, figure in parentheses: 45.9%
  No. of resorptions, figure in parentheses: 54.1%
  No. of fetuses with NTDs, figure in parentheses: (14.0)*
[12]
  ED50: > 300 mg/kg

Source: US20180339963A1, “ANTICONVULSANT CARBAMATE DERIVATIVES” (Yissum Research Development Company of the Hebrew …, priority 2017, published 2018)
